Columns and labels:
Format in all cases: cell-based
A498 = assay: NCI-60 single-dose screen; details: Homo sapiens, single dose 10 µM, '-' = no inhibition, read-out: % Growth Inhibition
In short: (§1)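 Values come from NCI-60 one-dose testing: compound at 10 μM against sixty human cancer cell lines of nine tissue types, performed at NCI DTP.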

CCRF-CEM = assay: NCI-60 single-dose screen; details: Homo sapiens, single dose 10 µM, '-' = no inhibition, read-out: % Growth Inhibition
In short: as §1

EKVX = assay: NCI-60 single-dose screen; details: Homo sapiens, single dose 10 µM, '-' = no inhibition, read-out: % Growth Inhibition
In short: as §1

HCT-15 = assay: NCI-60 single-dose screen; details: Homo sapiens, single dose 10 µM, '-' = no inhibition, read-out: % Growth Inhibition
In short: as §1

HOP-62 = assay: NCI-60 single-dose screen; details: Homo sapiens, single dose 10 µM, '-' = no inhibition, read-out: % Growth Inhibition
In short: as §1

KM12 = assay: NCI-60 single-dose screen; details: Homo sapiens, single dose 10 µM, '-' = no inhibition, read-out: % Growth Inhibition
In short: as §1

LOX IMVI = assay: NCI-60 single-dose screen; details: Homo sapiens, single dose 10 µM, '-' = no inhibition, read-out: % Growth Inhibition
In short: as §1

M14 = assay: NCI-60 single-dose screen; details: Homo sapiens, single dose 10 µM, '-' = no inhibition, read-out: % Growth Inhibition
In short: as §1

MALME-3M = assay: NCI-60 single-dose screen; details: Homo sapiens, single dose 10 µM, '-' = no inhibition, read-out: % Growth Inhibition
In short: as §1

MCF7 = assay: NCI-60 single-dose screen; details: Homo sapiens, single dose 10 µM, '-' = no inhibition, read-out: % Growth Inhibition
In short: as §1

MDA-MB-435 = assay: NCI-60 single-dose screen; details: Homo sapiens, single dose 10 µM, '-' = no inhibition, read-out: % Growth Inhibition
In short: as §1

MOLT-4 = assay: NCI-60 single-dose screen; details: Homo sapiens, single dose 10 µM, '-' = no inhibition, read-out: % Growth Inhibition
In short: as §1

SF-295 = assay: NCI-60 single-dose screen; details: Homo sapiens, single dose 10 µM, '-' = no inhibition, read-out: % Growth Inhibition
In short: as §1

SNB-75 = assay: NCI-60 single-dose screen; details: Homo sapiens, single dose 10 µM, '-' = no inhibition, read-out: % Growth Inhibition
In short: as §1

SW-620 = assay: NCI-60 single-dose screen; details: Homo sapiens, single dose 10 µM, '-' = no inhibition, read-out: % Growth Inhibition
In short: as §1

T-47D = assay: NCI-60 single-dose screen; details: Homo sapiens, T47D, single dose 10 µM, '-' = no inhibition, read-out: % Growth Inhibition
In short: as §1

A-549 = assay: Antiproliferative assay (MTT); details: Homo sapiens, A549, A-549 (lung), read-out: Antiproliferative activity IC50 ± SEM, A-549
Excerpt: (§2) The MTT test was employed for this investigation ([Hisham et al., 2022]; [El-Sherief et al., 2019]; [Ramadan et al., 2020]). Table 2 presents the four cancer cell lines’ median inhibitory concentration (IC50) and GI50 (average IC50) values.
(§3) The MTT test was employed for this investigation ([Hisham et al., 2022]; [El-Sherief et al., 2019]; [Ramadan et al., 2020]). The IC50 values were derived from dose-response tests. The reported data are derived from at least two independent studies, each comprising three replicates per concentration. See Supplementary Material A1 for more details.
(§4) (in 0.1% DMSO) were added (in 200 μL medium to yield a final concentration of 0.1% v/v) to the wells of plates. A single compound was designated with four wells followed by incubation of plates for 96h at 37°C. After incubation, medium was removed completely from the plates followed by addition of MTT (0.4 mg/mL in medium) to each well and subsequent incubation of plates for 3h. MTT (along with the medium) was removed and DMSO (150μL) was added to each well of the culture plates, followed by vertexing and subsequent measurement of absorbance (at 540 nm) using microplate reader. The data are shown as percentage inhibition of proliferation in comparison with controls containing 0.1% DMSO.
(§5) 4.2.1.2. Assay for antiproliferative effect […]
(§6) (10%) and 1 µg/mL each of aprotinin, leupeptin and pepstatin for 120 min. The purification was performed either at 4 °C or on ice. To record autophosphorylation level, EGFR kinase assay was carried out on the basis of DELFIA/Time-Resolved Fluorometry. The compounds were first
(§7) (1 picture or pasted object on this page, not shown here)

HT-29 = assay: Antiproliferative assay (MTT); details: Homo sapiens, HT-29 (colon), read-out: Antiproliferative activity IC50 ± SEM, HT-29
Excerpt: as §2, §3, §4, §5, §6, §7

MCF-7 = assay: Antiproliferative assay (MTT); details: Homo sapiens, MCF7, MCF-7 (breast), read-out: Antiproliferative activity IC50 ± SEM, MCF-7
Excerpt: as §2, §3, §4, §5, §6, §7

Panc-1 = assay: Antiproliferative assay (MTT); details: Homo sapiens, Panc-1 (pancreatic), read-out: Antiproliferative activity IC50 ± SEM, Panc-1
Excerpt: as §2, §3, §4, §5, §6, §7

Structure (SMILES) | inhibition at 10 µM (A498) [%] | inhibition at 10 µM (CCRF-CEM) [%] | inhibition at 10 µM (EKVX) [%] | inhibition at 10 µM (HCT-15) [%] | inhibition at 10 µM (HOP-62) [%] | inhibition at 10 µM (KM12) [%] | inhibition at 10 µM (LOX IMVI) [%] | inhibition at 10 µM (M14) [%] | inhibition at 10 µM (MALME-3M) [%] | inhibition at 10 µM (MCF7) [%] | inhibition at 10 µM (MDA-MB-435) [%] | inhibition at 10 µM (MOLT-4) [%] | inhibition at 10 µM (SF-295) [%] | inhibition at 10 µM (SNB-75) [%] | inhibition at 10 µM (SW-620) [%] | inhibition at 10 µM (T-47D) [%] | IC50 (A-549) [nM] | IC50 (HT-29) [nM] | IC50 (MCF-7) [nM] | IC50 (Panc-1) [nM]
COc1ccc(-c2cc(-c3ccc(Cl)cc3)nc(SC)n2)cc1 [Compound 9, 4-(4-Chlorophenyl)-6-(4-methoxyphenyl)-2-(methylthio)pyrimidine] | < 0 | 0.1 | 19.4 | 15 | 9.16 | 5.71 | 12.2 | 3.51 | 11.3 | 28.7 | 1.45 | 11.7 | 7.84 | < 0 | 6.31 | 9.97 | 60 ± 5 | 62 ± 6 | 65 ± 6 | 62 ± 6
CCSc1nc(-c2ccc(Cl)cc2)cc(-c2ccc(OC)cc2)n1 [Compound 10, 4-(4-Chlorophenyl)-2-(ethylthio)-6-(4-methoxyphenyl)pyrimidine] | 3.38 | < 0 | 7.83 | 14.4 | < 0 | 1.5 | < 0 | < 0 | < 0 | 25.5 | 8.38 | 2.95 | 2.91 | 3 | < 0 | 18.6 | 75 ± 7 | 74 ± 7 | 79 ± 7 | 76 ± 7
CCCSc1nc(-c2ccc(Cl)cc2)cc(-c2ccc(OC)cc2)n1 [Compound 11, 4-(4-Chlorophenyl)-6-(4-methoxyphenyl)-2-(propylthio)pyrimidine] | 2.73 | 1.71 | 6.92 | 7.25 | < 0 | 1.24 | < 0 | < 0 | < 0 | 4.02 | 1.63 | 2.06 | 6.79 | < 0 | 0.11 | 8.26 | 52 ± 5 | 53 ± 5 | 55 ± 5 | 54 ± 5
COc1ccc(-c2cc(-c3ccc(Cl)cc3)nc(SC(C)C)n2)cc1 [Compound 12, 4-(4-Chlorophenyl)-2-(isopropylthio)-6-(4-methoxyphenyl)pyrimidine] | < 0 | 24.1 | 16.8 | 38.7 | < 0 | 9.45 | 13.6 | 8.46 | 1.51 | 28.8 | 8.92 | 29.9 | 4.52 | < 0 | 5.57 | 40.4 | 35 ± 3 | 36 ± 3 | 37 ± 3 | 36 ± 3
C=CCSc1nc(-c2ccc(Cl)cc2)cc(-c2ccc(OC)cc2)n1 [Compound 13, 2-(Allylthio)-4-(4-chlorophenyl)-6-(4-methoxyphenyl)pyrimidine] | < 0 | 3.79 | 2.11 | 7.93 | < 0 | 0.8 | 4.72 | 4.04 | < 0 | < 0 | 5.34 | 14.3 | 1.47 | < 0 | < 0 | 18.4 | 64 ± 6 | 64 ± 6 | 68 ± 6 | 66 ± 6
COc1ccc(-c2cc(-c3ccc(Cl)cc3)nc(SCc3ccccc3)n2)cc1 [Compound 14, 2-(Benzylthio)-4-(4-chlorophenyl)-6-(4-methoxyphenyl)pyrimidine] | < 0 | < 0 | 2.76 | 4.95 | < 0 | < 0 | 3.14 | < 0 | < 0 | < 0 | 3.68 | 4.54 | < 0 | < 0 | < 0 | 14.4 | 28 ± 2 | 28 ± 2 | 30 ± 2 | 29 ± 2
COc1ccc(CSc2nc(-c3ccc(Cl)cc3)cc(-c3ccc(OC)cc3)n2)cc1 [Compound 15, 2-(4-Methoxybenzylthio)-4-(4-chlorophenyl)-6-(4-methoxyphenyl)pyrimidine] | < 0 | < 0 | < 0 | 0.53 | < 0 | < 0 | < 0 | < 0 | < 0 | < 0 | 2.38 | 3.03 | < 0 | < 0 | < 0 | < 0 | 79 ± 7 | 80 ± 7 | 82 ± 7 | 80 ± 7
COc1ccc(-c2cc(-c3cccc(OC)c3)nc(SC)n2)cc1 [Compound 16, 6-(3-Methoxyphenyl)-4-(4-methoxyphenyl)-2-(methylthio)pyrimidine] | < 0 | 8.85 | 21.7 | 19.5 | 1.53 | 6.2 | 0.51 | < 0 | < 0 | 11.3 | 6.06 | 19.9 | 4.05 | < 0 | 1.89 | 22.2 | 86 ± 7 | 85 ± 8 | 89 ± 8 | 85 ± 8
CCSc1nc(-c2ccc(OC)cc2)cc(-c2cccc(OC)c2)n1 [Compound 17, 2-(Ethylthio)-6-(3-methoxyphenyl)-4-(4-methoxyphenyl)pyrimidine] | < 0 | 2.15 | 1.03 | 2.62 | < 0 | 2.23 | 5.7 | < 0 | < 0 | 11 | 2.52 | 4.56 | < 0 | < 0 | 1.81 | 10.2 | 28 ± 2 | 29 ± 2 | 30 ± 3 | 28 ± 2
COc1ccc(CSc2nc(-c3ccc(OC)cc3)cc(-c3cccc(OC)c3)n2)cc1 [Compound 22, 2-(4-Methoxybenzylthio)-6-(3-methoxyphenyl)-4-(4-methoxyphenyl)pyrimidine] |  |  |  |  |  |  |  |  |  |  |  |  |  |  |  |  | 21 ± 2 | 23 ± 2 | 23 ± 2 | 22 ± 2

Reference: paper PMC11576293, “New series of 4,6-diaryl pyrimidines: facile synthesis and antiproliferative activity as dual EGFR/VEGFR-2 inhibitors” (Frontiers in Chemistry, 2024)
